According to patent US8986650B2, “Complex folate-NOTA-Ga68” (Guerbet, priority 2005, dated 2015):
Like-named read-outs stand apart in the source and are kept apart here. Each block holds one compound with its values, some of them ahead of it.

Tests used:
ovarian cancer = settings: patients, phase I/II study; cited from earlier work
KB tumor cells (FR+) [1] = system: KB tumor cells (FR+)
Protocol: Nude mice bearing KB-tumors were used for this study.
The NODAGA-LINKER-FOLATE derivative was labeled with ^67Ga by incubation at RT with 37 MBq of ^67GaCl3 in HEPES buffer. […] It was diluted with 0.9% NaCl at a concentration of 4 nmol/ml and this solution was injected to the mice (100 μl/0.4 nmol/mouse).
One week before the tumor cell inoculation all mice were put under a folate low diet (SAFE company, semi-synthetic product with 50 μg/kg of folate) until the end of the study.
At D0, the tumor inoculation was performed as follow: One million (10^6) of KB tumor cells (FR+) resuspended at 1×10^7 cells/ml in sterile PBS 0.01M, pH 7.4, were subcutaneously inoculated in the right flank of the nude mice in a volume of 100 μl. The tumors were allowed to grow for 8-9 days. For the in vivo evaluation the mice were grouped in groups of 3 mice per group.
At D9 biodistribution studies were performed for the ^67Ga-NODAGA-LINKER-FOLATE (compound 2′ complexed by Ga67) in groups of mice as follow: • 3 groups: injection with ^67Ga-NODAGA-LINKER-FOLATE (compound 2′ complexed by Ga67) (0.4 nmol/10 μCi/100 μl/mouse) • 1 group: injection of Folic acid (40 nmol/100 μl/mouse) 5 min before the injection of ^67Ga-NODAGA-LINKER-FOLATE (compound 2′ complexed by Ga67) • 1 group: injection of Alimta (400 μg/100 μl/mouse) 1 h before the injection of ^67Ga-NODAGA-LINKER-FOLATE (compound 2′ complexed by Ga67) • Time points: 2 h, 4 h, 4 h (blocking with FA), 4 h (kidney blocking with Alimta), 24 h p.i. Results

OVCAR-3 tumors = assay: Biodistribution and PET/CT imaging in mice model bearing OVCAR-3 tumor; format: in vivo, SCID mice
Protocol: Similar protocol was used for OVCAR-3 tumor models.
For the kidney blocking the antifolate Alimta, at a concentration of 4 mg/ml in PBS pH 7.4 was used.
For the Folate Receptors blocking Folic acid in 100-fold excess (400 nmol/ml) in PBS pH 7.4 was used.

KB tumor cells (FR+) [2] = assay: Biodistribution of NODAGA-LINKER-FOLATE-Ga68 in nude mice bearing KB-tumors; format: in vivo; settings: for Ratio tumor:blood / Ratio tumor:bone / Ratio tumor:kidney / Ratio tumor:liver / Ratio tumor:muscle / Ratio tumor:pancreas / Ratio tumor:parotid: 1 h post-injection
Protocol: The NODAGA-LINKER-FOLATE derivative was labeled with ^68Ga using the Modular-Lab automatic system by Eckert & Ziegler.
NODAGA-LINKER-FOLATE-Ga68 compound (compound 2) was obtained in radiochemical purity preferably >92 to >98%.
At D0, the tumor inoculation was performed as follow: One million (10^6) of KB tumor cells (FR+) resuspended at 1×10^7 cells/ml in sterile PBS 0.01M, pH 7.4, were subcutaneously inoculated in the right flank of the nude mice in a volume of 100 μl.
At D8 biodistribution studies and PET/CT images were performed for NODAGA-folate-Ga68 (compound 2) in 2 groups of mice as follow: • 1 group: injection with NODAGA-LINKER-FOLATE-Ga68 (compound 2) (0.4 nmol/2 MBq/100 μl/mouse) • 1 group: injection of Alimta (400 μg/100 μl/mouse) 1 h before the injection of NODAGA-LINKER-FOLATE-Ga68 (compound 2) • Time point: 1 h p.i.

[3] = Parotid gland uptake in normal mice without folate-free diet; format: in vivo; settings: no folate-free diet
[4] = 4 h Alimta pre-injection (400 μg/mouse, 1 h)
[5] = 4 h blocking with Folic acid (100-fold excess, 5 min pre-injection)
[6] = Group 1: Alimta 400 μg/mouse 1 h pre-injection

Structure (SMILES): Nc1nc2ncc(CNc3ccc(C(=O)N[C@@H](CCC(=O)NCCNC(=O)CN(CCN(CCN(CC(=O)[O-])CC(=O)[O-])CC(=O)[O-])CC(=O)[O-])C(=O)O)cc3)nc2c(=O)[nH]1.[111In] [111In-DTPA-folate]
- Target-tissue uptake and non target-tissue clearance (ovarian cancer): rapid target-tissue uptake and non target-tissue clearance

- Biodistribution, Parotid gland (KB tumor cells (FR+) [1]; 2 h): 9.10 ± 3.39
- Biodistribution, adrenal (KB tumor cells (FR+) [1]; 2 h): 3.09 ± 0.52
- Biodistribution, blood (KB tumor cells (FR+) [1]; 2 h): 0.09 ± 0.02
- Biodistribution, intestine (KB tumor cells (FR+) [1]; 2 h): 0.50 ± 0.12
- Biodistribution, kidney (KB tumor cells (FR+) [1]; 2 h): 142.14 ± 15.46
- Biodistribution, liver (KB tumor cells (FR+) [1]; 2 h): 1.38 ± 0.50
- Biodistribution, lung (KB tumor cells (FR+) [1]; 2 h): 1.32 ± 0.15
- Biodistribution, muscle (KB tumor cells (FR+) [1]; 2 h): 1.49 ± 0.18
- Biodistribution, pancreas (KB tumor cells (FR+) [1]; 2 h): 2.91 ± 0.08
- Biodistribution, pituitary (KB tumor cells (FR+) [1]; 2 h): 0.53 ± 0.24
- Biodistribution, spleen (KB tumor cells (FR+) [1]; 2 h): 0.48 ± 0.11
- Biodistribution, stomach (KB tumor cells (FR+) [1]; 2 h): 1.58 ± 0.12
- Biodistribution, Parotid gland (KB tumor cells (FR+) [1]; 4 h): 8.58 ± 2.33
- Biodistribution, adrenal (KB tumor cells (FR+) [1]; 4 h): 2.80 ± 0.10
- Biodistribution, blood (KB tumor cells (FR+) [1]; 4 h): 0.06 ± 0.01
- Biodistribution, intestine (KB tumor cells (FR+) [1]; 4 h): 0.43 ± 0.16
- Biodistribution, kidney (KB tumor cells (FR+) [1]; 4 h): 130.31 ± 14.65
- Biodistribution, liver (KB tumor cells (FR+) [1]; 4 h): 1.07 ± 0.18
- Biodistribution, lung (KB tumor cells (FR+) [1]; 4 h): 1.36 ± 0.37
- Biodistribution, muscle (KB tumor cells (FR+) [1]; 4 h): 2.12 ± 0.31
- Biodistribution, pancreas (KB tumor cells (FR+) [1]; 4 h): 2.92 ± 0.11
- Biodistribution, pituitary (KB tumor cells (FR+) [1]; 4 h): 0.79 ± 0.74
- Biodistribution, spleen (KB tumor cells (FR+) [1]; 4 h): 0.46 ± 0.10
- Biodistribution, stomach (KB tumor cells (FR+) [1]; 4 h): 1.47 ± 0.08
- Biodistribution, Parotid gland (KB tumor cells (FR+) [1]; [4]): 6.10 ± 2.09
- Biodistribution, adrenal (KB tumor cells (FR+) [1]; [4]): 1.75 ± 0.23
- Biodistribution, blood (KB tumor cells (FR+) [1]; [4]): 0.04 ± 0.01
- Biodistribution, intestine (KB tumor cells (FR+) [1]; [4]): 0.50 ± 0.37
- Biodistribution, kidney (KB tumor cells (FR+) [1]; [4]): 19.13 ± 6.66
- Biodistribution, liver (KB tumor cells (FR+) [1]; [4]): 0.88 ± 0.26
- Biodistribution, lung (KB tumor cells (FR+) [1]; [4]): 0.68 ± 0.18
- Biodistribution, muscle (KB tumor cells (FR+) [1]; [4]): 1.26 ± 0.38
- Biodistribution, pancreas (KB tumor cells (FR+) [1]; [4]): 2.20 ± 0.69
- Biodistribution, pituitary (KB tumor cells (FR+) [1]; [4]): 0.59 ± 0.41
- Biodistribution, spleen (KB tumor cells (FR+) [1]; [4]): 0.31 ± 0.13
- Biodistribution, stomach (KB tumor cells (FR+) [1]; [4]): 0.84 ± 0.31
- Biodistribution, Parotid gland (KB tumor cells (FR+) [1]; [5]): 0.18 ± 0.06
- Biodistribution, adrenal (KB tumor cells (FR+) [1]; [5]): 0.02 ± 0.01
- Biodistribution, blood (KB tumor cells (FR+) [1]; [5]): 0.00 ± 0.00
- Biodistribution, intestine (KB tumor cells (FR+) [1]; [5]): 0.08 ± 0.07
- Biodistribution, kidney (KB tumor cells (FR+) [1]; [5]): 6.49 ± 1.03
- Biodistribution, liver (KB tumor cells (FR+) [1]; [5]): 0.06 ± 0.00
- Biodistribution, lung (KB tumor cells (FR+) [1]; [5]): 0.06 ± 0.00
- Biodistribution, muscle (KB tumor cells (FR+) [1]; [5]): 0.03 ± 0.00
- Biodistribution, pancreas (KB tumor cells (FR+) [1]; [5]): 0.05 ± 0.00
- Biodistribution, pituitary (KB tumor cells (FR+) [1]; [5]): −0.02 ± 0.01
- Biodistribution, spleen (KB tumor cells (FR+) [1]; [5]): 0.04 ± 0.01
- Biodistribution, stomach (KB tumor cells (FR+) [1]; [5]): 0.09 ± 0.06
- Biodistribution, Parotid gland (KB tumor cells (FR+) [1]; 24 h): 5.57 ± 0.82
- Biodistribution, adrenal (KB tumor cells (FR+) [1]; 24 h): 5.04 ± 5.96
- Biodistribution, blood (KB tumor cells (FR+) [1]; 24 h): 0.04 ± 0.02
- Biodistribution, intestine (KB tumor cells (FR+) [1]; 24 h): 0.37 ± 0.13
- Biodistribution, kidney (KB tumor cells (FR+) [1]; 24 h): 97.62 ± 11.59
- Biodistribution, liver (KB tumor cells (FR+) [1]; 24 h): 0.87 ± 0.16
- Biodistribution, lung (KB tumor cells (FR+) [1]; 24 h): 0.94 ± 0.31
- Biodistribution, muscle (KB tumor cells (FR+) [1]; 24 h): 1.14 ± 0.01
- Biodistribution, pancreas (KB tumor cells (FR+) [1]; 24 h): 2.37 ± 0.17
- Biodistribution, pituitary (KB tumor cells (FR+) [1]; 24 h): 0.41 ± 0.39
- Biodistribution, spleen (KB tumor cells (FR+) [1]; 24 h): 0.37 ± 0.13
- Biodistribution, stomach (KB tumor cells (FR+) [1]; 24 h): 1.01 ± 0.10
- Time of maximum tumor uptake (KB tumor cells (FR+) [1]; KB-tumor bearing nude mice): 2 h p.i.
- Tumor uptake (KB tumor cells (FR+) [1]; at 24 h p.i.): remains high
- Specificity of tumor uptake (KB tumor cells (FR+) [1]; blocking experiment with folic acid): specific
- Kidney uptake (KB tumor cells (FR+) [1]; with the use of Alimta): significantly reduced
- Tumor uptake (KB tumor cells (FR+) [1]; with the use of Alimta): remained the same
Structure (SMILES): Nc1nc2ncc(CNc3ccc(C(=O)N[C@@H](CCC(=O)NCCNC(=O)CCC(C(=O)[O-])N4CCN(CC(=O)[O-])CCN(CC(=O)[O-])CC4)C(=O)O)cc3)nc2c(=O)[nH]1.[67Ga+3] (some centres unmarked) [NODAGA-LINKER-FOLATE-Ga67]

- PET/CT images: background (OVCAR-3 tumors; 1 h post injection): negligible background
- PET/CT images: kidneys (OVCAR-3 tumors; 1 h post injection): high uptake in the kidneys
- Ratio tumor:blood (KB tumor cells (FR+) [2]; [6]): 49.33
- Ratio tumor:bone (KB tumor cells (FR+) [2]; [6]): 20.96
- Ratio tumor:kidney (KB tumor cells (FR+) [2]; [6]): 0.69
- Ratio tumor:liver (KB tumor cells (FR+) [2]; [6]): 10.49
- Ratio tumor:muscle (KB tumor cells (FR+) [2]; [6]): 13.32
- Ratio tumor:pancreas (KB tumor cells (FR+) [2]; [6]): 9.30
- Ratio tumor:parotid (KB tumor cells (FR+) [2]; [6]): 2.63
- Ratio tumor:blood (KB tumor cells (FR+) [2]; Group 2: no Alimta): 64.85
- Ratio tumor:bone (KB tumor cells (FR+) [2]; Group 2: no Alimta): 28.11
- Ratio tumor:kidney (KB tumor cells (FR+) [2]; Group 2: no Alimta): 0.17
- Ratio tumor:liver (KB tumor cells (FR+) [2]; Group 2: no Alimta): 6.64
- Ratio tumor:muscle (KB tumor cells (FR+) [2]; Group 2: no Alimta): 9.95
- Ratio tumor:pancreas (KB tumor cells (FR+) [2]; Group 2: no Alimta): 6.89
- Ratio tumor:parotid (KB tumor cells (FR+) [2]; Group 2: no Alimta): 1.72
- Uptake in the parotid gland (KB tumor cells (FR+) [2]; KB-tumor mice under folate-free diet): High uptake
- High uptake in the parotid gland [3]: This was not the case
Structure (SMILES): Nc1nc2ncc(CNc3ccc(C(=O)N[C@@H](CCC(=O)NCCNC(=O)CCC(C(=O)O)N4CCN(CC(=O)O)CCN(CC(=O)O)CC4)C(=O)O)cc3)nc2c(=O)[nH]1 (some centres unmarked) [NODAGA-LINKER-FOLATE-Ga68, folate-NODAGA-Ga68, metal not drawn]
- PET/CT images: tumors (OVCAR-3 tumors; 1 h post injection): clear visualization of the tumors
- Quality of PET/CT images (OVCAR-3 tumors; mouse, in vivo): Very satisfying
